Where a name gives a salt, the structure may show the parent alone. Active and inactive are the calls of the source.

One series relates to Mus musculus. Nature of the series: AUC (0 to infinity) in BALB/c mouse at 5 mg/kg, iv. Format: ADME, organism-based, Brain. More on the design: time infinity, dose 5 mg/kg, route intravenous. The following applies: in vivo.
A short description of series [1]: CSF penetration index, ratio of AUC (0 to infinity) in CSF to plasma of Sprague-Dawley rat at 4 mg/kg, iv. Format: ADME, organism-based. Further details: dose 4 mg/kg, route intravenous.
The subject of series [2] is U-251. Put plainly: Antiproliferative activity against human U251 cells. It is filed as functional, cell-based.
A short description of series [3]: Antiproliferative activity against human MES-SA cells. It is filed as functional, cell-based.
Series [4] in a line: Brain penetration index, ratio of AUC (0 to infinity) in brain to plasma of BALB/c mouse at 5 mg/kg, iv. Format: ADME, organism-based. Further details: dose 5 mg/kg, route intravenous.
Series [5] in a line: Tmax in BALB/c mouse at 5 mg/kg, iv. The settings on record: in vivo. It is filed as ADME, organism-based. Further details: dose 5 mg/kg, route intravenous.
A short description of series [6]: Half life in BALB/c mouse at 5 mg/kg, iv. Format: ADME, organism-based. The settings on record: in vivo. Further details: dose 5 mg/kg, route intravenous.
Series [7] is described as follows: Antiproliferative activity against human doxorubicin-resistant MES-SA/Dx5-Rx1 cells. Format: functional.
Series [8] is described as follows: Fraction unbound in BALB/c mouse brain at 5 mg/kg, iv. It is filed as ADME, organism-based. Further details: dose 5 mg/kg, route intravenous.
Series [9] deals with SF-295. Nature of the series: Antiproliferative activity against human SF295 cells. Format: functional, cell-based.
The test system of series [10] is U-251. Put plainly: Antitumor activity against human U251 cells infected in athymic mouse assessed as increase in mouse survival at 1.1 to 2.5 mg/kg relative to control. The settings on record: dose mg/kg 1.1-2.5. It is filed as functional.
Series [11] concerns SF-295. Put plainly: Antitumor activity against human SF295 cells infected in athymic mouse assessed as increase in mouse survival at 0.36 to 0.80 mg/kg relative to control. Format: functional, organism-based.

As a reminder, the Kp is tissue or fluid exposure divided by exposure in the circulation. Usually IC50 stands for the concentration at which inhibition is half-maximal. Broadly, the Tmax is the time from dosing to the highest level. What is called half-life is the time needed for the level to fall by half in the phase considered. A lower half-life goes with rapid decline. As a reminder, the fraction unbound is the share of the substance not bound to proteins or other matrix. Read a high fraction unbound as weak binding. In the series on Mus musculus, `C=C1C[C@@H]2CC[C@@]34C[C@H]5O[C@H]6[C@@H](O3)[C@H]3O[C@H](CC[C@@H]3O[C@H]6[C@H]5O4)CC(=O)C[C@@H]3[C@@H](OC)[C@@H](C[C@@H](CN4CCOCC4)OC)O[C@H]3C[C@H]3O[C@@H](CC[C@@H]1O2)C[C@@H](C)C3=C` registered an AUC of 1351 ng·h/g. Moreover, the Kp in series [1] stood at 2.2. In addition, the half-inhibitory concentration (IC50) in the series with U-251 [2] was 1.97 nM; in series [3] it was 0.16 nM; in series [7], 1.91 nM. Further, the “Ratio AUC” value in [4] was determined as 1.4 mL/g. The Tmax in series [5] was found to be 4.8 min. Also, the half-life in series [6] was 0.9 h. This compound also registered an unbound share (fraction unbound) in series [8] of 0.113.
`C=C1C[C@@H]2CC[C@@]34C[C@H]5O[C@H]6[C@@H](O3)[C@H]3O[C@H](CC[C@@H]3O[C@H]6[C@H]5O4)CC(=O)C[C@@H]3[C@@H](OC)[C@@H](CCCN4CCOCC4)O[C@H]3C[C@H]3O[C@@H](CC[C@@H]1O2)C[C@@H](C)C3=C` registered an AUC in the series on Mus musculus of 10200 ng·h/g. The concentration for half-maximal inhibition (IC50) with U-251 [2] worked out at 1.44 nM; in [3], 0.083 nM; in series [7], 1.3 nM. In addition, in series [4], the “Ratio AUC” value stood at 7.7 mL/g. The Tmax in [5] is 15 min. In [6], the half-life is 4.6 h. In [8], this compound registered an unbound share (fraction unbound) of 0.101.
For `C#CCN(C)C[C@H](C[C@H]1O[C@H]2C[C@H]3O[C@@H](CC[C@@H]4O[C@@H](CC[C@@]56C[C@H]7O[C@H]8[C@@H](O5)[C@H]5O[C@H](CC[C@@H]5O[C@H]8[C@H]7O6)CC(=O)C[C@@H]2[C@H]1OC)CC4=C)C[C@@H](C)C3=C)OC`, the IC50 is 0.41 nM in the series on SF-295 [9], 0.18 nM with U-251 [2], 0.18 nM in series [3] and 0.95 nM in [7].
As for `C=C(C)CN1CCO[C@@H](C[C@H]2O[C@H]3C[C@H]4O[C@@H](CC[C@@H]5O[C@@H](CC[C@@]67C[C@H]8O[C@H]9[C@@H](O6)[C@H]6O[C@H](CC[C@@H]6O[C@H]9[C@H]8O7)CC(=O)C[C@@H]3[C@H]2OC)CC5=C)C[C@@H](C)C4=C)C1`, the AUC in the series on Mus musculus amounted to 1362 ng·h/g. Besides, the IC50 with SF-295 [9] worked out at 0.26 nM; in the series with U-251 [2], 0.5 nM; in [3] it was 0.25 nM; in series [7], 1.53 nM. Besides, in the series on U-251 [10], the Activity is listed as over 175%. Moreover, the “Ratio AUC” value in series [4] is 1.8 mL/g. In addition, the Tmax in [5] came to 4.8 min. The half-life in series [6] is 1.2 h. For the same compound, the result in the series with SF-295 [11] was Active. For the same compound, the fraction unbound in [8] amounted to 0.024.
As to `C=C(C)CN(CC)CC[C@H]1O[C@H]2C[C@H]3O[C@@H](CC[C@@H]4O[C@@H](CC[C@@]56C[C@H]7O[C@H]8[C@@H](O5)[C@H]5O[C@H](CC[C@@H]5O[C@H]8[C@H]7O6)CC(=O)C[C@@H]2[C@H]1OC)CC4=C)C[C@@H](C)C3=C`, the IC50 in the series with U-251 [2] was determined as 0.61 nM; in series [3], 0.23 nM; in series [7], 2.89 nM.
For the compound `C=C1C[C@@H]2CC[C@@]34C[C@H]5O[C@H]6[C@@H](O3)[C@H]3O[C@H](CC[C@@H]3O[C@H]6[C@H]5O4)CC(=O)C[C@@H]3[C@@H](OC)[C@@H](C[C@@H](CN4CCC(C(F)(F)F)CC4)OC)O[C@H]3C[C@H]3O[C@@H](CC[C@@H]1O2)C[C@@H](C)C3=C`, the concentration for half-maximal inhibition (IC50) in the series on U-251 [2] worked out at 0.33 nM; in series [3], 0.14 nM; in [7] it was 0.83 nM.
`CC(=O)O[C@H]1C(=O)[C@@]2(C)[C@H]([C@H](OC(=O)c3ccccc3)[C@]3(O)C[C@H](OC(=O)[C@H](O)[C@@H](NC(=O)c4ccccc4)c4ccccc4)C(C)=C1C3(C)C)[C@]1(OC(C)=O)CO[C@@H]1C[C@@H]2O` [PACLITAXEL]: the IC50 in the series with SF-295 [9] was 24.6 nM; in series [7], over 1000 nM.
`C=C1C[C@@H]2CC[C@@]34C[C@H]5O[C@H]6[C@@H](O3)[C@H]3O[C@H](CC[C@@H]3O[C@H]6[C@H]5O4)CC(=O)C[C@@H]3[C@@H](OC)[C@@H](C[C@H](O)CN)O[C@H]3C[C@H]3O[C@@H](CC[C@@H]1O2)C[C@@H](C)C3=C` [ERIBULIN MESYLATE] yielded an AUC in the series on Mus musculus of 435 ng·h/g. Also, the half-maximal inhibitory concentration (IC50) was found to be 27.9 nM with SF-295 [9] and 5.87 nM in the series on U-251 [2]. Moreover, the “Ratio AUC” value in series [4] was found to be 0.55 mL/g. Moreover, the time of peak concentration (Tmax) in series [5] came out at 30 min. The half-life in series [6] is 46 h.
Take `C=C1C[C@@H]2CC[C@@]34C[C@H]5O[C@H]6[C@@H](O3)[C@H]3O[C@H](CC[C@@H]3O[C@H]6[C@H]5O4)CC(=O)C[C@@H]3[C@@H](OC)[C@@H](C[C@@H](CN4CC(C)CC(C)C4)OC)O[C@H]3C[C@H]3O[C@@H](CC[C@@H]1O2)C[C@@H](C)C3=C` (some centres not stated): the AUC with Mus musculus came to 3108 ng·h/g. In addition, the half-inhibitory concentration (IC50) in the series with SF-295 [9] turned out to be 0.1 nM; in the series on U-251 [2], 2.55 nM; in series [3], 0.13 nM; in series [7], 2.41 nM. In series [4], the “Ratio AUC” value is 1.7 mL/g. In addition, the time of peak concentration (Tmax) in series [5] is 4.8 min. For the same compound, the half-life in [6] is 5.3 h. In [8], this compound displayed a free fraction (fraction unbound) of 0.034.
Turning to `C=C1C[C@@H]2CC[C@@]34C[C@H]5O[C@H]6[C@@H](O3)[C@H]3O[C@H](CC[C@@H]3O[C@H]6[C@H]5O4)CC(=O)C[C@@H]3[C@@H](OC)[C@@H](CCNCC(F)F)O[C@H]3C[C@H]3O[C@@H](CC[C@@H]1O2)C[C@@H](C)C3=C`, the concentration for half-maximal inhibition (IC50) in the series on U-251 [2] is 4.05 nM; in series [3] it was 1.91 nM; in series [7], 31.9 nM.
For `C=C(C)CN(CC)C[C@H](C[C@H]1O[C@H]2C[C@H]3O[C@@H](CC[C@@H]4O[C@@H](CC[C@@]56C[C@H]7O[C@H]8[C@@H](O5)[C@H]5O[C@H](CC[C@@H]5O[C@H]8[C@H]7O6)CC(=O)C[C@@H]2[C@H]1OC)CC4=C)C[C@@H](C)C3=C)OC`, the IC50 in the series with U-251 [2] turned out to be 3.74 nM; in [3], 0.23 nM; in [7], 2.73 nM.
On to `C=C1C[C@@H]2CC[C@@]34C[C@H]5O[C@H]6[C@@H](O3)[C@H]3O[C@H](CC[C@@H]3O[C@H]6[C@H]5O4)CC(=O)C[C@@H]3[C@@H](OC)[C@@H](CCN4CCOCC4)O[C@H]3C[C@H]3O[C@@H](CC[C@@H]1O2)C[C@@H](C)C3=C`, for which the half-inhibitory concentration (IC50) was found to be 1.26 nM in the series on U-251 [2], 0.12 nM in series [3] and 2.52 nM in [7].
For `C=C1C[C@@H]2CC[C@@]34C[C@H]5O[C@H]6[C@@H](O3)[C@H]3O[C@H](CC[C@@H]3O[C@H]6[C@H]5O4)CC(=O)C[C@@H]3[C@@H](OC)[C@@H](CCN4CCC(C(F)(F)F)CC4)O[C@H]3C[C@H]3O[C@@H](CC[C@@H]1O2)C[C@@H](C)C3=C`, in that order: 0.28 nM, 0.11 nM and 0.75 nM.
For `C=C1C[C@@H]2CC[C@@]34C[C@H]5O[C@H]6[C@@H](O3)[C@H]3O[C@H](CC[C@@H]3O[C@H]6[C@H]5O4)CC(=O)C[C@@H]3[C@@H](OC)[C@@H](CC(=O)CN4CCOCC4)O[C@H]3C[C@H]3O[C@@H](CC[C@@H]1O2)C[C@@H](C)C3=C`, in that order: 0.88 nM, 0.25 nM and 3.12 nM.
`C=C1C[C@@H]2CC[C@@]34C[C@H]5O[C@H]6[C@@H](O3)[C@H]3O[C@H](CC[C@@H]3O[C@H]6[C@H]5O4)CC(=O)C[C@@H]3[C@@H](OC)[C@@H](C[C@@H](COC)OC)O[C@H]3C[C@H]3O[C@@H](CC[C@@H]1O2)C[C@@H](C)C3=C`: the IC50 in the series with U-251 [2] was found to be 0.74 nM; in series [3] it was 0.24 nM.

(Values after ChEMBL document CHEMBL1681743, “Novel second generation analogs of eribulin. Part III: Blood-brain barrier permeability and in vivo activity in a brain tumor model” (Bioorg Med Chem Lett, 2011).)
